In patent publication US12138398B2, “Methods and devices for providing a stimulus to a subject to induce gamma oscillations” (Massachusetts Institute of Technology, priority 2015, dated 2024):
“Also recorded” adds a separate entry of the source.

What was measured:
AD patients = details: AD subjects; cited from earlier work
CK-p25 Tg mice = assay: Brain weight and lateral ventricle expansion in CK-p25 Tg mice; type: in vivo, mouse
Method: A study was conducted to examine the effect of gamma exposure and/or administration in accordance with some embodiments on DNA damage and neuronal loss in the visual cortex of a subject. For the study, an inducible mouse model of p25 accumulation (i.e., a creatine kinase carboxyl-terminal fragment p25 Tg mouse (CK-p25 Tg mouse)) was used. […] A study was conducted to compare groups of mice under different treatment regimens. FIG. 84 is a diagram of the groups including CK-control mice 8400, untreated CK-p25 Tg mice 8402, CK-p25 Tg mice treated with memantine (10 mg/kg daily) 8404, CK-p25 Tg mice exposed to the 40-Hz light flicker (one hour daily for 6 weeks) in accordance with some embodiments 8406, and CK-p25 Tg mice treated with memantine and also exposed to the 40-Hz light flicker 8408. Memantine is a medication used with limited success to treat severe AD by blocking NMDA receptors, thereby acting on the glutamatergic system. […] For example, gamma exposure reduced and/or prevented CKp-25-induced loss of brain weight. FIG. 85 is bar graph comparing brain weight change in CK-control mice, untreated CK-p25 Tg mice, CK-p25 Tg mice treated with memantine, CK-p25 Tg mice exposed to the 40-Hz light flicker in accordance with some embodiments, and CK-p25 Tg mice treated with both memantine and the 40-Hz light flicker. Brain weight loss was pronounced in untreated CK-p25 Tg mice, CK-p25 Tg mice treated with memantine, and CK-p25 Tg mice treated with both memantine and the 40-Hz light flicker. However, CK-p25 Tg mice exposed to the 40-Hz light flicker in accordance with some embodiments retained more brain weight. […] For example, gamma exposure reduced and/or prevented CKp-25-induced abnormal lateral ventricle expansion in subjects. FIG. 86 is bar graph comparing fold change of lateral ventricle expansion in CK-control mice, untreated CK-p25 Tg mice, CK-p25 Tg mice treated with memantine, CK-p25 Tg mice exposed to the 40-Hz light flicker in accordance with some embodiments, and CK-p25 Tg mice treated with both memantine and the 40-Hz light flicker with expansion in the CK-control mice as a baseline. Lateral ventricle expansion was pronounced in untreated CK-p25 Tg mice, CK-p25 Tg mice treated with memantine, and CK-p25 Tg mice treated with both memantine and the 40-Hz light flicker. Lateral ventricles in CK-p25 Tg mice exposed to the 40-Hz light flicker in accordance with some embodiments expanded much less than the lateral ventricles in the other CK-p25 Tg mice.

[1] = memantine + 40-Hz light flicker

CC12CC3CC(C)(C1)CC(N)(C3)C2 [memantine]
clinical outcome on cognition (AD patients): only mild cognitive benefits | Brain weight loss (CK-p25 Tg mice; memantine 10 mg/kg daily): pronounced | Lateral ventricle expansion (CK-p25 Tg mice; memantine 10 mg/kg daily): pronounced; also recorded: largest | Brain weight loss (CK-p25 Tg mice; [1]): pronounced | Lateral ventricle expansion (CK-p25 Tg mice; [1]): pronounced; also recorded: largest
